Data on 22 molecules can be found in patent publication US11649222B2, “Compounds” (UNIVERSITETET I OSLO, priority 2016, dated 2023).

Counter-ions that a name gives are not always drawn. Like-named read-outs stand apart in the source and are kept apart here. Marks after values point to notes of the source that are not given here.

What all share (assay type): cell-based
Assay [1] relates to resistant gram-negative MBL-based bacteria. In words: MICx: adjuvant concentration giving carbapenem MIC ≤ 2 mg/L. The protocol:
(§1) • Plate bacterial strain(s) on appropriate media: • Gram-negative bacteria with ESBLs or carbapenemases: green agar plates with 100 mg/L ampicillin • Gram-negative bacteria without β-lactamases: green agar plates • Gram-positive bacteria (Staphylococci and Enterococci): blood agar plates • Incubate o.n. at 37° C. […] (Should be used within 15 min of preparation). • Dilute the 0.5 McFarland suspension 1:100 into MH broth. […] Plate 10 μl of the dilution on MH agar plates (×2). Incubate o.n. at 37° C., count the colonies and calculate the final CFU/ml inoculum in the plate by multiplying the average number of colonies with 10000 and divide by 2. The final inoculum should be between 3-7×10^5 CFU/ml. • Add 50 μl of the prepared bacterial suspension to each well in the microtiter plate except negative growth control. Preparation of Compounds/Antibiotics • Calculate the desired concentration-range and volume of the compounds/antibiotics in the assay. […] Dilute the stock solution in MH broth. Make subsequent 2-fold dilutions in MH broth of the desired concentrations if a concentration range is to be tested (remember the extra dilution factor in the assay plate). Always include extra volume for pipetting. Take into consideration stock solutions that are made in buffers that have an effect on bacterial growth (e.g. DMSO).

Assay [2] deals with human hepG2 cells. In words: In vitro toxicity in human hepG2 cells (AlamarBlue viability). The protocol: For viability assays, cells were seeded in white 96-well Nunclon plates at a density of 20,000 cells/well and left overnight to adhere before experiments were conducted. Zn chelators dissolved in DMSO were added to white 96-well plates containing 20000 HepG2 cells/well at concentrations ranging from 1 to 1×10^−6 mM (max DMSO concentration never exceeded 1%) and incubated for 24 hours at 37° C. After 24 hours, AlamarBlue® cell viability reagent (Thermo Fisher, Carlsbad, USA) was added (10% final concentration) and incubated for 4 hours at 37° C.
(In general: The colour change of resazurin is a common sign of viable cells or microbes.)

Assay [3] deals with K. pneumoniae K66-45 (NDM-1). In words: Microbroth dilution MIC of carbapenem with/without inhibitor. Particulars: inhibitor 63 mg/L; K. pneumoniae K66-45 NDM-1. The protocol:
as §1
On the technique in general: Dilution methods test growth across graded concentrations, often in twofold steps.

In assay [4] the test system is P. aeruginosa K34-7 (VIM-2). The assay is described as above. Particulars: inhibitor 63 mg/L. The method, then:
as §1

Setting [5] is: Homo sapiens, HepG2, read-out: IC50h.
[6] abbreviates: lowest concentration of compound X that results in a MIC value of ≤ 2 mg/L for carbapenem antibiotics.
Where [7] appears, read: human hepG2 cells, 24 hours, AlamarBlue, 8 replicates, read-out: IC50.
The mark [8] stands for this setting: human hepG2 cells, read-out: IC50h.
[9] abbreviates: Homo sapiens, HepG2, estimated values (footnote c), read-out: IC50h.

Take `O=C(O)CN1CCN(CC(=O)O)CCN([C@H](CO)[C@H](O)CO)CCN(CC(=O)O)CC1` [Butrol, reference compound]: the MICx in assay [1] (estimated values (footnote c)) is 15^c μM. Besides, the IC50 in assay [2] (estimated values (footnote c), read-out: IC50h) was 60 µM. Turning to `CCOCCOCCOCCN(CCN(Cc1ccccn1)Cc1ccccn1)Cc1ccccn1` [Example 9, N1-(2-(2-(2-ethoxyethoxy)ethoxy)ethyl)-N1,N2,N2-tris(pyridin-2-ylmethyl)ethane-1,2-diamine], the “Meropenem activity in presence of inhibitor” value in assay [3] and in assay [4] was at most 0.5 mg/L throughout. Take `COC(=O)c1ccc(CN(Cc2ccccn2)Cc2ccccn2)nc1` [Example 12, methyl 6-((bis(pyridin-2-ylmethyl)amino)methyl)nicotinate]: the MICx in assay [1] stood at 31 µM. Further, the IC50 was 16.5 µM in assay [2] (Homo sapiens, HepG2, 24 h) and 16.4 µM in assay [2] (setting [5]).

Regarding `OCc1ccc(CN(Cc2ccccn2)Cc2ccccn2)nc1` [Example 14, (6-((bis(pyridin-2-ylmethyl)amino)methyl)pyridin-3-yl) methanol], the MICx in assay [1] (setting [6]) stood at 31 µM. The IC50 in assay [2] (setting [7]) and in assay [2] (setting [8]) was 12.4 µM each time. As for `CC(=O)OC[C@H]1OC(OC(C)=O)[C@H](NC(=O)Cc2ccc(NC(=O)CN(CCN(Cc3ccccn3)Cc3ccccn3)Cc3ccccn3)cc2)[C@@H](OC(C)=O)[C@@H]1OC(C)=O` (stereo partly drawn) [Example 22a, (3R,4R,5S,6R)-6-(acetoxymethyl)-3-(2-(4-(2-((2-(bis(pyridin-2-ylmethyl)amino)ethyl)(pyridin-2-ylmethyl)amino)acetamido)phenyl)acetamido) tetrahydro-2H-pyran-2,4,5-triyltriacetate], the “Meropenem activity in presence of inhibitor” value was 0.25 mg/L in assay [3] and 1 mg/L in assay [4]. As to `O=C(CN(CCN(Cc1ccccn1)Cc1ccccn1)Cc1ccccn1)Nc1ccc(CC(=O)NC(CO)(CO)CO)cc1` [Example 24, 2-((2-(bis(pyridin-2-ylmethyl)amino)ethyl)(pyridin-2-ylmethyl)amino)-N-(4-(2-(1,3-dihydroxy-2-(hydroxymethyl)propan-2-ylamino)-2-oxoethyl)phenyl)acetamide], the MICx in assay [1] (setting [6]) worked out at 31 µM. For the same molecule, in assay [2] (setting [8]), the IC50 was found to be 60 µM. Take `OC[C@H]1OC(O)[C@H](n2cc(CN(Cc3ccccn3)Cc3ccccn3)nn2)[C@@H](O)[C@@H]1O` (stereo partly drawn) [Example 84, (3R,4R,5S,6R)-3-(4-((bis(pyridin-2-ylmethyl)amino)methyl)-1H-1,2,3-triazol-1-yl)-6-(hydroxymethyl)tetrahydro-2H-pyran-2,4,5-triol]: the MICx in assay [1] (setting [6]) was found to be 125 µM. Also, the IC50 in assay [2] (setting [7]) is above 1000 µM; in assay [2] (setting [8]) it was 116 µM. In the case of `OC1O[C@H](Cn2cc(CN(CCN(Cc3ccccn3)Cc3ccccn3)Cc3ccccn3)nn2)[C@H](O)[C@H](O)[C@H]1O` (stereo partly shown) [Example 91], the MICx in assay [1] (setting [6]) was determined as 31 µM. Moreover, the IC50 in assay [2] (setting [7]) and in assay [2] (setting [8]) was 165 µM in each case. On to `CN(C[C@H](O)[C@@H](O)[C@H](O)[C@H](O)CO)C(=O)Cc1ccc(-n2cc(CN(Cc3ccccn3)Cc3ccccn3)nn2)cc1` [Example 96, 2-(4-(4-((bis(pyridin-2-ylmethyl)amino)methyl)-1H-1,2,3-triazol-1-yl)phenyl)-N-methyl-N-((2S,3R,4R,5R)-2,3,4,5,6-pentahydroxyhexyl)acetamide], for which the MICx in assay [1] (setting [6]) worked out at 125 µM. The IC50 in assay [2] (setting [7]) is above 1000 µM; in assay [2] (setting [8]) it was at least 118 µM.

For `O=C(NC[C@@H](O)CO)c1ccc(CN(Cc2ccccn2)Cc2ccccn2)nc1` [Example 97, (R)-6-((bis(pyridin-2-ylmethyl)amino)methyl)-N-(2,3-dihydroxypropyl)nicotinamide], the IC50 in assay [2] (setting [7]) stood at 131 µM. Take `O=C(Cc1ccc(-n2cc(CN(Cc3ccccn3)Cc3ccccn3)nn2)cc1)NC(CO)(CO)CO` [Example 98, 2-(4-(4-((bis(pyridin-2-ylmethyl)amino)methyl)-1H-1,2,3-triazol-1-yl)phenyl)-N-(1,3-dihydroxy-2-(hydroxymethyl)propan-2-yl)acetamide]: the MICx in assay [1] (setting [6]) amounted to 125 µM. Besides, the IC50 in assay [2] (setting [7]) and in assay [2] (setting [8]) was 259 µM each time. Consider `O=C(NCCc1ccc(-n2cc(CN(Cc3ccccn3)Cc3ccccn3)nn2)cc1)[C@H]1O[C@H](O)[C@H](O)[C@@H](O)[C@H]1O` [Example 101, (2S,3R,4S,5R,6S)—N-(4-(4-((Bis(pyridin-2-ylmethyl)amino)methyl)-1H-1,2,3-triazol-1-yl)phenethyl)-3,4,5,6-tetrahydroxytetrahydro-2H-pyran-2-carboxamide], for which, in assay [2] (setting [7]), the IC50 is around 220 µM. Regarding `O=C(NC(CO)(CO)CO)c1ccc(CN(Cc2ccccn2)Cc2ccccn2)nc1` [Example 103, 6-((bis(pyridin-2-ylmethyl)amino)methyl)-N-(1,3-dihydroxy-2-(hydroxymethyl)propan-2-yl)nicotinamide], the MICx in assay [1] (setting [6]) is 31 µM. Further, the IC50 in assay [2] (setting [7]) and in assay [2] (setting [8]) was 67.6 µM in each case. On to `O=C(Cc1ccc(-n2cc(CN(Cc3ccccn3)Cc3ccccn3)nn2)cc1)NC[C@H](O)CO` [Example 104, (S)-2-(4-(4-((bis(pyridin-2-ylmethyl)amino)methyl)-1H-1,2,3-triazol-1-yl)phenyl)-N-(2,3-dihydroxypropyl)acetamide], for which the IC50 in assay [2] (setting [7]) was determined as 224 µM. Regarding `O=C(c1ccc(CN(Cc2ccccn2)Cc2ccccn2)nc1)N1CCNCC1` [Example 105, (6-((bis(pyridin-2-ylmethyl)amino)methyl)pyridin-3-yl)(piperazin-1-yl)methanone], in assay [1] (setting [6]), the MICx is 31 µM. For the same molecule, the IC50 in assay [2] (setting [9]) is 100 µM; in assay [2] (setting [7]), around 210 µM. On to `O=C(CNCCc1ccc(NC(=O)CN(CCN(Cc2ccccn2)Cc2ccccn2)Cc2ccccn2)cc1)NCC(O)CO` (stereo not shown) [Example 108], for which the IC50 in assay [2] (setting [7]) is above 1000 µM.

For the molecule `O=C(O)CNC(=O)CNC(=O)c1ccc(CN(Cc2ccccn2)Cc2ccccn2)nc1` [Example 109], in assay [2] (setting [7]), the IC50 turned out to be 128 µM. `NCc1ccc(CN(Cc2ccccn2)Cc2ccccn2)nc1` [Example 147, 1-(5-(aminomethyl)pyridin-2-yl)-N,N-bis(pyridin-2-ylmethyl) methanamine hydrochloride] gave an IC50 in assay [2] (Homo sapiens, HepG2, 24 h) of around 10 µM. Take `O=C(O)C[C@@H]1CC[C@H](NC(=O)c2ccc(CN(Cc3ccccn3)Cc3ccccn3)nc2)B(O)O1` [Example 163, 2-((3R,6S)-3-(6-((Bis(pyridin-2-ylmethyl)amino)methyl)nicotinamido)-2-hydroxy-1,2-oxaborinan-6-yl)acetic acid]: the IC50 in assay [2] (setting [9]) is 100 µM. As for `COC(=O)c1ccc(CN(Cc2ccccc2)Cc2ccccn2)nc1` [Example 186, methyl 6-((benzyl(pyridin-2-ylmethyl)amino)methyl)nicotinate], in assay [2] (setting [7]), the IC50 is around 215 µM. The term EC50 denotes the midpoint of the concentration-response curve. With `c1ccc(CN(Cc2ccccn2)Cc2ccccn2)nc1` [TPA, N,N,N-tris(2-pyridylmethyl) amine, reference compound], the EC50 in assay [2] (Homo sapiens, HepG2) turned out to be 10 µM. As to `CN[C@H](CC(C)C)C(=O)N[C@H]1C(=O)N[C@@H](CC(N)=O)C(=O)N[C@H]2C(=O)N[C@H]3C(=O)N[C@H](C(=O)N[C@H](C(=O)O)c4cc(O)cc(O)c4-c4cc3ccc4O)[C@H](O)c3ccc(c(Cl)c3)Oc3cc2cc(c3O[C@@H]2O[C@H](CO)[C@@H](O)[C@H](O)[C@H]2O[C@H]2C[C@](C)(N)[C@H](O)[C@H](C)O2)Oc2ccc(cc2Cl)[C@H]1O` [Vancomycin, reference compound], the MICx in assay [1] is recorded as > 1000^d μM. The IC50 in assay [2] (setting [5]) was 20 µM.
